Measurements as given in US12427346B2, “P62 ligand compound, and composition for preventing, ameliorating or treating proteinopathies comprising the same” (AUTOTAC INC., priority 2018, dated 2025).
Structures can show the parent of a compound that is named as a salt.

Legend:
Format in all cases: cell-based, human
p62 and LC3 [1] = test: Autophagy activity of control compounds by immunofluorescence staining and confocal microscopy (Experimental Example 6); conditions: different concentrations, FIG. 7
Experimental: In order to confirm p62 protein activity and the activity level of autophagy phenomenon of control compounds (YOK-A-1104, YOK-G-1104, YTK-1005, YTK-1105-1), immunofluorescence staining was performed in the same manner as in Experimental Example 4 by using p62 and LC3 as markers. YOK-A-1104 and YOK-G-1104 are compounds having the following structures.
The compounds were treated at different concentrations, and intracellular puncta of p62 or LC3, that is, the degree to which autophagosome was formed and p62 was delivered was observed by a confocal microscopy.

LC3 [2] = test: Autophagy activity in cultured cells by immunoblotting, concentration series (Experimental Example 2); conditions: HeLa cells; 1, 2, 5, 10 and 20 μM, 24 hours; immunoblot, FIG. 3
Experimental: In order to evaluate the autophagy activity efficacy by the compounds (Examples 1-25), HeLa cell line, which is a cell line derived from a cervical cancer patient, was cultured using a DMEM medium containing 10% FBS and 1% streptomycin/penicillin in an incubator with 5% carbon dioxide. As the representative compounds among the present compounds, the compounds of Examples 1, 2, 3, 5, 6, 7, 8, 9, 12 and 13 (Example 5 (YTK-1005), Example 1 (YTK-1105), Example 6 (YTK-1205), Example 7 (YTK-1305), Example 2 (YTK-2205), Example 3 (YTK-3305), Example 8 (YTK-105), Example 9 (YTK-205), Example 14 (YTK-1108), Example 12 (YT 5-7), Example 13 (YT 5-8)), Example 20 (ATB10041), Example 21 (ATB10042), Example 22 (ATB10043), Example 23 (ATB10044), Example 24 (ATB10045), and Example 25 (ATB10046)) were selected. In order to measure autophagy activity according to the treatment with these selected representative compounds, the respective cells were dispensed into 6 well plates. Additional cultures were performed for 24 hours so that the cells were completely attached to the surface of the plate. To find the concentration at which the respective compounds could increase the phenomenon of autophagy, the test compounds were diluted at 1, 2, 5, 10 and 20 μM and treated. After treatment with the respective compounds, the cells were cultured again in a cell incubator for 24 hours, and then the cells were collected. To extract proteins from the collected cells, 100 ul of lysis buffer (20 mM Tris (pH 7.4), 150 mM NaCl, 1% Triton X-100, 2 mM NaF, 2 mM EDTA, 2 mM beta-glycerophosphate, 5 mM sodium orthovanadate, 1 mM PMSF, leupeptin, aprotinin) was injected into each sample, and cells were lysed. Based on the measured total protein concentration, a sample buffer was added to each sample and allowed to react at 100° C. for 5 minutes. 5 ul was taken from the samples after the reaction, and dispensed into each well of acrylamide gel, and then immunoblotting was performed.

LC3 [3] = test: Autophagy activity in cultured cells by immunoblotting, treatment time (Experimental Example 3); conditions: HeLa cells; 5 μM for 1, 3, 6, 12, 24, 48 hours or 10 μM for 24 hours; immunoblot, FIG. 4
Experimental: In order to investigate the autophagy activity efficacy by the compounds (Examples 1-25), immunoblotting was performed in the same manner as in Experimental Example 2 using LC3 as a marker. As for the difference, in order to evaluate the treatment time required for activation and the activity retention time, 5 μM of the representative compounds selected among the present compounds (Example 5 (YTK-1005), Example 6 (YTK-1205), Example 7 (YTK-1305), Example 2 (YTK-2205), Example 3 (YTK-3305), Example 14 (YTK-1108), Example 8 (YTK-105), Example 9 (YTK-205)) were treated for 1, 3, 6, 12, 24, 48 hours. On the other hand, 10 μM of the representative compounds selected among the present compounds (Example 10 (YT 5-1), Example 11 (YT 5-2), Example 16 (YT 8-8), Example 15 (YT 8-7), Example 17 (YTK-107), Example 18 (YTK-207), Example 20 (ATB10041), Example 21 (ATB10042), Example 22 (ATB10043), Example 23 (ATB10044), Example 24 (ATB10045), Example 25 (ATB10046)) were treated for 24 hours.

p62 and LC3 [4] = test: Autophagy activity by immunofluorescence staining and confocal microscopy (Experimental Example 5); conditions: HeLa cells, 5 uM, 24 hours, FIG. 6
Experimental: In order to confirm the p62 protein activity and the activity level of autophagy phenomenon by the compounds (Examples 1-25), immunofluorescence staining was performed using p62 and LC3 as markers. In order to confirm the p62 activity and the activity level of autophagy phenomenon by new p62 ligands and isomers thereof in cultured cells, HeLa cell line, which is a cell line derived from cervical cancer patient, was treated with the novel p62 ligand compounds (YTK-1205, YTK-1305, YTK-2205, YTK-3305, YTK-105, YTK-205, YT 5-1, YT 9-1, YT 5-2, YT 9-2, YT 8-2, YT 8-1, YTK-107, YTK-207) and cultured. Thereafter, as markers of the autophagy phenomenon, the expression level and location of LC3 puncta and the local co-existence with p62 puncta were observed.
For immunofluorescence staining, a cover glass was placed on a 24-well plate, cells were dispensed, cultured for 24 hours, and then treated with 5 uM of the novel p62 ligands according to the present invention. For the action of the compounds, additional cultures were performed for 24 hours, and then the medium was removed. Cells were fixed using formaldehyde at room temperature. In order to prevent non-specific staining, the cells were allowed to react with a blocking solution at room temperature for 1 hour, and then treated with LC3 antibody diluted at a certain ratio using the blocking solution, and allowed to reacted at room temperature for 1 hour. The antibody-treated cells were washed three times with PBS, and goat-derived secondary antibody was diluted at a certain ratio using the blocking solution, and then allowed to react at room temperature for 30 minutes. The cells were washed again with PBS three times, and for intracellular nuclear staining, the expression level, intracellular puncta formation and intracellular coexistence level of p62 and LC3 were observed through a confocal microscopy after DAPI staining.

| SMILES | p62 activation and oligomerization, delivery to autophagosome, autophagy activity (p62 and LC3 puncta) of control compounds (p62 and LC3 [1]) | autophagy activity (level of LC3) (LC3 [2]) | autophagy activity (level of LC3) (LC3 [3]) | p62 activation and oligomerization, delivery to autophagosome, autophagy activity (p62 and LC3 puncta, local coexistence) (p62 and LC3 [4]) |
| --- | --- | --- | --- | --- |
| CCOC(=O)C(C)NC[C@@H](O)COc1ccc(OCc2ccccc2)c(OCc2ccccc2)c1 (stereo partly drawn) [YOK ALA-1104, Ethyl (R)-(3-(3,4-bis(benzyloxy)phenoxy)-2-hydroxypropyl)alanineate] | allow the activation and oligomerization of p62 proteins and then show the efficacy of delivering them to autophagosome and simultaneously increasing autophagy activity |  |  |  |
| COC(=O)CNC[C@@H](O)COc1ccc(OCc2ccccc2)c(OCc2ccccc2)c1 [YOK R-Gly-1104, Methyl (R)-(3-(3,4-bis(benzyloxy)phenoxy)-2-hydroxypropyl)glycineate] | allow the activation and oligomerization of p62 proteins and then show the efficacy of delivering them to autophagosome and simultaneously increasing autophagy activity |  |  |  |
| OCCCCc1ccc(OCc2ccccc2)c(OCc2ccccc2)c1 [YTK HCl-1105-1, 4-(3,4-bis(benzyloxy)phenyl)butan-1-ol] | allow the activation and oligomerization of p62 proteins and then show the efficacy of delivering them to autophagosome and simultaneously increasing autophagy activity |  |  |  |
| OCCNCc1ccc(OCc2ccccc2)c(O)c1 [YTK-HCl-1005, 2-(benzyloxy)-5-(((2-hydroxyethyl)amino)methyl)phenol] | allow the activation and oligomerization of p62 proteins and then show the efficacy of delivering them to autophagosome and simultaneously increasing autophagy activity | increasing the autophagy activity | increasing the autophagy activity |  |
| OCCNCc1cccc(OCc2ccccc2)c1 [YTK-105, 2-((3-(benzyloxy)benzyl)amino)ethan-1-ol] |  | increasing the autophagy activity | increasing the autophagy activity | allow the activation and oligomerization of p62 proteins, and then show the efficacy of delivering them to autophagosome and simultaneously increasing autophagy activity |
